Reference: ChEMBL document CHEMBL1201862, “PubChem BioAssay data set” (2004)
One block for each molecule: values may come before it. Activity calls are given as the source filed them. Unless noted, the rule behind the calls is not given here.

Tests used:
[1] = target: T1, E3 ubiquitin-protein ligase XIAP (Homo sapiens, UniProt P98170); assay: SAR analysis of Antagonists of XIAP-Bir3 domain of IAP-family anti-apoptotic proteins. [Related pubchem assays (depositor defined):AID1018, AID1449, AID1513, AID1514, AID1638]
[2] = target: T1, E3 ubiquitin-protein ligase XIAP; assay: SAR analysis of Antagonists of IAP-family anti-apoptotic proteins. [Related pubchem assays (depositor defined):AID1018, AID1449, AID1513, AID1514, AID1638]
[3] = target: T2, Delta-type opioid receptor (Homo sapiens, UniProt P41143); assay: HTS Image-Based Screen for Antagonists of the DOR Receptor. [Related pubchem assays (depositor defined):AID1777, AID1785, AID1786, AID2133]; type: functional
Mu-type opioid receptor = Mu-type opioid receptor (Homo sapiens, UniProt P35372); assay: HTS Image-Based Screen for Agonists of the MOR Receptor. [Related pubchem assays (depositor defined):AID1777, AID1785, AID1786, AID2133]; type: functional;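 also: imaging of beta-arrestin GFP recruitment into spots after receptor activation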
[4] = target: T2, Delta-type opioid receptor; assay: HTS Image-Based Screen for Agonists of the DOR Receptor. [Related pubchem assays (depositor defined):AID1777, AID1786, AID2133]; type: functional
[5] = target: T3, Kappa-type opioid receptor (Homo sapiens, UniProt P41145); type: functional
[6] = target: T3, Kappa-type opioid receptor; type: functional; remark: listed apart in the source
[7] = target: T4, Short transient receptor potential channel 4 (Mus musculus, UniProt Q9QUQ5); assay: block of DAMGO-driven TRPC4 calcium entry – cell-based, HEK293 TRPC4/mu-opioid, Fluo-4 calcium, dose response (AID 434942); type: functional;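 also: potency of inhibitors blocking the TRPC4 calcium response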
T4 sequence (Q9QUQ5 whole entry): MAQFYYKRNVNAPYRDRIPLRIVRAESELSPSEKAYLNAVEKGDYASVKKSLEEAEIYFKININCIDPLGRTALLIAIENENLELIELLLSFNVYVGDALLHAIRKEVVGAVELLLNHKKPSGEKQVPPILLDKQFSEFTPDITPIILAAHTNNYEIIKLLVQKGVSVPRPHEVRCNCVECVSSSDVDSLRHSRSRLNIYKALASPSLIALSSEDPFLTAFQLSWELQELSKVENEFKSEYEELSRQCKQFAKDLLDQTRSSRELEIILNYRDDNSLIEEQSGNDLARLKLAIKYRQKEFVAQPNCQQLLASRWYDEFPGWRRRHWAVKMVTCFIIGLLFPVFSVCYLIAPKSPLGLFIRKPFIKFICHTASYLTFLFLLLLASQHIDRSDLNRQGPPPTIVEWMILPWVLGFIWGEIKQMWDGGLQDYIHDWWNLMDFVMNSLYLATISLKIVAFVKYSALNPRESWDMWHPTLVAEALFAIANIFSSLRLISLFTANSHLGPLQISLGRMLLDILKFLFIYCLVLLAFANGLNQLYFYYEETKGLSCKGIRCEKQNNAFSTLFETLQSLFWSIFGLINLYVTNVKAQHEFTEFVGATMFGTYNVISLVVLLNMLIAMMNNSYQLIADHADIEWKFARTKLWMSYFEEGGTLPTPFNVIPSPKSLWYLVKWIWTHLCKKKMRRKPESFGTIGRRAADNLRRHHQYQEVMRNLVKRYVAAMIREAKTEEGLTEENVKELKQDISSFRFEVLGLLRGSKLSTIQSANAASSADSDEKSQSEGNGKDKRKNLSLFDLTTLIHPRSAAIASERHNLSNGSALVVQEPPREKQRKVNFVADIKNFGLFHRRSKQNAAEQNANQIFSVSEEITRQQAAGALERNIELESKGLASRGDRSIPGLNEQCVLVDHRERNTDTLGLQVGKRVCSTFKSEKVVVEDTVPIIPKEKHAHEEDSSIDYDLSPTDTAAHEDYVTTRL

[8] = target: T5, Tyrosine-protein phosphatase non-receptor type 22 (Homo sapiens, UniProt Q9Y2R2); assay: SAR LYP1 Fluorescent Assay using pCAP substrate for In Vitro dose response studies - Set 2. [Related pubchem assays (depositor defined):AID1779, AID1784, AID2135, AID449727]; type: functional
T5 sequence (Q9Y2R2 whole entry): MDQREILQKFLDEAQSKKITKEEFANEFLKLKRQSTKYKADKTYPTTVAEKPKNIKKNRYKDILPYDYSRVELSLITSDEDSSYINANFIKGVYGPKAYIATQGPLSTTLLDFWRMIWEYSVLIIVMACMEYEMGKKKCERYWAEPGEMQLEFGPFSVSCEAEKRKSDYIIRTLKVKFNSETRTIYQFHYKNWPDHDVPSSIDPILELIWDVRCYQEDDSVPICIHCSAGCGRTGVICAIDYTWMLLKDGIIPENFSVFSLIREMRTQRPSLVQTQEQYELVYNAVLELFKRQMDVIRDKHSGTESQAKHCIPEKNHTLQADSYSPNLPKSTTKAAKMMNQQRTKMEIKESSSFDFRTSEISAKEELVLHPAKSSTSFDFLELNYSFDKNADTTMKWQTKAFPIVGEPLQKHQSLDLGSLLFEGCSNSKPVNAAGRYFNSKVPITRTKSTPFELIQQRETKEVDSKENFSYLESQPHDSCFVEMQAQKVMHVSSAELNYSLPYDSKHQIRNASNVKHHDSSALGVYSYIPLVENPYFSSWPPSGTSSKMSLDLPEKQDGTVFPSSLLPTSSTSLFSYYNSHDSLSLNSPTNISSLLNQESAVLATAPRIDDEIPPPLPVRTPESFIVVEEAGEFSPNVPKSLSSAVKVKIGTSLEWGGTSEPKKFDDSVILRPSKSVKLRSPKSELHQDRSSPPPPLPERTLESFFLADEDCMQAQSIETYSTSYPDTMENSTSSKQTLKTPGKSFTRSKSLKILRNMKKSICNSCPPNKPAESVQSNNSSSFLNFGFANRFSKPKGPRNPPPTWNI

[9] = target: Tyrosine-protein phosphatase non-receptor type 12 (Homo sapiens, UniProt Q05209); assay: SAR Selectivity Analysis of small molecule inhibitors of PEST using pCAP in a fluorescence assay. [Related pubchem assays (depositor defined):AID1779, AID1784, AID2135]; type: functional
[10] = target: T5, Tyrosine-protein phosphatase non-receptor type 22; assay: SAR LYP1 Fluorescent Assay using OMFP substrate for In Vitro dose response studies - Set 3. [Related pubchem assays (depositor defined):AID1779, AID1784, AID2140, AID2686]; type: functional
[11] = target: T6, Tyrosine-protein phosphatase non-receptor type 7 (Homo sapiens, UniProt P35236); assay: inhibition of hematopoietic tyrosine phosphatase HePTP – biochemical, set 2, SAR follow-up (AID 449736); type: functional
T6 sequence (P35236 whole entry): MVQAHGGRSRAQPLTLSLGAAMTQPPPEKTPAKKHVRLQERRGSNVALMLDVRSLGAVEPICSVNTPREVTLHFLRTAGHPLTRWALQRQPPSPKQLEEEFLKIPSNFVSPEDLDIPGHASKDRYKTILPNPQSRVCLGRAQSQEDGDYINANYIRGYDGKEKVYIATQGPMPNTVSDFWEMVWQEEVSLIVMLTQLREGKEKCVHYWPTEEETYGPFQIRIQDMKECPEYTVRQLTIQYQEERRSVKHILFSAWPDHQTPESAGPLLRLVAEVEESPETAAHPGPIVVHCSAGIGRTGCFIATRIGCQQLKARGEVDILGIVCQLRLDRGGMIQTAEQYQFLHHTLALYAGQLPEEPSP

[12] = target: T5, Tyrosine-protein phosphatase non-receptor type 22; assay: inhibition of lymphoid tyrosine phosphatase LYP – biochemical, pCAP fluorogenic substrate, fluorescence, set 3, SAR follow-up (AID 449727); type: functional
[13] = target: T5, Tyrosine-protein phosphatase non-receptor type 22; assay: PubChem AID 2135
[14] = target: T5, Tyrosine-protein phosphatase non-receptor type 22; assay: PubChem AID 2140
[15] = target: T5, Tyrosine-protein phosphatase non-receptor type 22; assay: SAR LYP1 Fluorescent Assay using OMFP substrate for In Vitro dose response studies - Set 2. [Related pubchem assays (depositor defined):AID1779, AID1784, AID2140, AID449726, AID488869]; type: functional
[16] = target: T3, Kappa-type opioid receptor; assay: SAR analysis of small molecule antagonists of the kappa opioid receptor via a luminescent beta-arrestin assay - Set 4. [Related pubchem assays (depositor defined):AID1777, AID1778, AID1785, AID1786, AID1966, AID2133, AID2136, AID2285]; type: functional
[17] = target: T3, Kappa-type opioid receptor; assay: SAR analysis of small molecule antagonists of the kappa opioid receptor via a luminescent beta-arrestin assay - Set 5. [Related pubchem assays (depositor defined):AID1778, AID1785]; type: functional
[18] = target: Sphingosine 1-phosphate receptor 5 (Homo sapiens, UniProt Q9H228); assay: (§1) Late-stage fluorescence-based dose-response cell-based assay to identify agonists of the Sphingosine 1-Phosphate Receptor 4 (S1P4): Sphingosine 1-Phosphate Receptor 5 (S1P5) counterscreen assay. [Related pubchem assays (depositor defined):AID1509, AID1523, AID1563, AID1686, AID1701, AID1801, AID463107, AID463225, AID504400]; type: functional
[19] = target: Sphingosine 1-phosphate receptor 1 (Homo sapiens, UniProt P21453); assay: as §1, with “1 (S1P1)” for “5 (S1P5)”; type: functional
[20] = target: Sphingosine 1-phosphate receptor 2 (Homo sapiens, UniProt O95136); assay: as §1, with “2 (S1P2)” for “5 (S1P5)”; type: functional
[21] = target: Sphingosine 1-phosphate receptor 3 (Homo sapiens, UniProt Q99500); assay: as §1, with “3 (S1P3)” for “5 (S1P5)”; type: functional
Sequence of Sphingosine 1-phosphate receptor 3 (Q99500 whole entry): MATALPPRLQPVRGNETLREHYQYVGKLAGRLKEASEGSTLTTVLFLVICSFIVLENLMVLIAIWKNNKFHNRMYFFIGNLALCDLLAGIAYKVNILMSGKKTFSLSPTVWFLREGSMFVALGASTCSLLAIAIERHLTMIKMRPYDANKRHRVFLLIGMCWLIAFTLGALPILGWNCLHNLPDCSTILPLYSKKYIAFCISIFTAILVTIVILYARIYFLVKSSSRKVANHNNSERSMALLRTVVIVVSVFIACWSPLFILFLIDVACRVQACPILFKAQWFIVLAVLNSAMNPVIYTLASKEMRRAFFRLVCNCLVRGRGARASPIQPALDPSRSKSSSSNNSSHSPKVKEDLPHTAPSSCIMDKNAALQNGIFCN

T3 sequence (P41145 whole entry): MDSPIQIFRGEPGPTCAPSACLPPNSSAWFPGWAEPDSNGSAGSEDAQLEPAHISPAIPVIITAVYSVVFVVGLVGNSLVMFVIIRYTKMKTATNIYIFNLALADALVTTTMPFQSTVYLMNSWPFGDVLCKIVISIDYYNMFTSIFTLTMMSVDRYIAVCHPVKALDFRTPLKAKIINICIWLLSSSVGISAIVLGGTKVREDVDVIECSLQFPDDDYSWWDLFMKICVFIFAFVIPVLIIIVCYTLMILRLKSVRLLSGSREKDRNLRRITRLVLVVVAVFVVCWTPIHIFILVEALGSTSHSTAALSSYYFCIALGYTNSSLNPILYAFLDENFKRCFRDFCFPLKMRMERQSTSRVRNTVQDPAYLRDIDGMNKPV
T1 sequence (P98170 whole entry, the tested form may be a part): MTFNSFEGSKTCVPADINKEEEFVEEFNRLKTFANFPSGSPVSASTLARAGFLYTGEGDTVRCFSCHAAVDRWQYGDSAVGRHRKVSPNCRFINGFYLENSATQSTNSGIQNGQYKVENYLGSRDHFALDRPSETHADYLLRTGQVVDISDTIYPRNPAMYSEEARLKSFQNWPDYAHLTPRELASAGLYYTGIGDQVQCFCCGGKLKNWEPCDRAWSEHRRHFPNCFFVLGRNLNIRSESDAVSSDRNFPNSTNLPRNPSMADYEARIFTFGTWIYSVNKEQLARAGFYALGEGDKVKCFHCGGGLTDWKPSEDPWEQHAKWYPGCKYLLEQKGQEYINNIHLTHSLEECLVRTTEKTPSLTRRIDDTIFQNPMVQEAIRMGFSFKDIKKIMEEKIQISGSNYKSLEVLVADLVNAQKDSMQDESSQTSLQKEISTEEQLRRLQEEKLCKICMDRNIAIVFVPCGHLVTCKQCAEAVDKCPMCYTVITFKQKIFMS
T2 sequence (P41143 whole entry): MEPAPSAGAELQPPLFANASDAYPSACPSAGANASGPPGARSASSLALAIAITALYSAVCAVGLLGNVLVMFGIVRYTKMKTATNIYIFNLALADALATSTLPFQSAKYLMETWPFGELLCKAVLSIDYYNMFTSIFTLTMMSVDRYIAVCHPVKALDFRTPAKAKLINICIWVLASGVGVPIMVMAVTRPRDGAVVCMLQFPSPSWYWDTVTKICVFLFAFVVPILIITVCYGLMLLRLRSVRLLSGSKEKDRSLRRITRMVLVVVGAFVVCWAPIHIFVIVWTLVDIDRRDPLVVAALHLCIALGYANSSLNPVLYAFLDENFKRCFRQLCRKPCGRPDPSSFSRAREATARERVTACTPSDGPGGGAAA
Sequence of Sphingosine 1-phosphate receptor 5 (Q9H228 whole entry): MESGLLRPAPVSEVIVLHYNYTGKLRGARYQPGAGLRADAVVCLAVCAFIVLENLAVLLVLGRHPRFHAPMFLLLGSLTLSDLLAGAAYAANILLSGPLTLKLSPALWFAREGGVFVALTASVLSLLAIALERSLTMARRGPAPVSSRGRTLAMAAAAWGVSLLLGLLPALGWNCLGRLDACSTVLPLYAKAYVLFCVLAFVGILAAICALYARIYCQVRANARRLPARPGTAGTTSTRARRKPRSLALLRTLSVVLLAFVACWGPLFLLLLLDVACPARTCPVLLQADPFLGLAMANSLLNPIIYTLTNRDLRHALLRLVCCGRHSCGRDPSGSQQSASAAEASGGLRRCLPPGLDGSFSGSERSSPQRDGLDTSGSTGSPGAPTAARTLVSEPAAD
Sequence of Sphingosine 1-phosphate receptor 2 (O95136 whole entry): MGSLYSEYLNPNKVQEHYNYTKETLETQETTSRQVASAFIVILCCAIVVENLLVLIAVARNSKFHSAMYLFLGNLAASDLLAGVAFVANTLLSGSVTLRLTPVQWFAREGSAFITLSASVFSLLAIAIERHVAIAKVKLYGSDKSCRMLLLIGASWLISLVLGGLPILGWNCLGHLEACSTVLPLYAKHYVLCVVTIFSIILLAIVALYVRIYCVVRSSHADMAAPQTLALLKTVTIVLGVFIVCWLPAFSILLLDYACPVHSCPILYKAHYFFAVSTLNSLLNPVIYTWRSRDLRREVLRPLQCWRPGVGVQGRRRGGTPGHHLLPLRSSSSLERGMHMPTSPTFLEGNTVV
Sequence of Tyrosine-protein phosphatase non-receptor type 12 (Q05209 whole entry): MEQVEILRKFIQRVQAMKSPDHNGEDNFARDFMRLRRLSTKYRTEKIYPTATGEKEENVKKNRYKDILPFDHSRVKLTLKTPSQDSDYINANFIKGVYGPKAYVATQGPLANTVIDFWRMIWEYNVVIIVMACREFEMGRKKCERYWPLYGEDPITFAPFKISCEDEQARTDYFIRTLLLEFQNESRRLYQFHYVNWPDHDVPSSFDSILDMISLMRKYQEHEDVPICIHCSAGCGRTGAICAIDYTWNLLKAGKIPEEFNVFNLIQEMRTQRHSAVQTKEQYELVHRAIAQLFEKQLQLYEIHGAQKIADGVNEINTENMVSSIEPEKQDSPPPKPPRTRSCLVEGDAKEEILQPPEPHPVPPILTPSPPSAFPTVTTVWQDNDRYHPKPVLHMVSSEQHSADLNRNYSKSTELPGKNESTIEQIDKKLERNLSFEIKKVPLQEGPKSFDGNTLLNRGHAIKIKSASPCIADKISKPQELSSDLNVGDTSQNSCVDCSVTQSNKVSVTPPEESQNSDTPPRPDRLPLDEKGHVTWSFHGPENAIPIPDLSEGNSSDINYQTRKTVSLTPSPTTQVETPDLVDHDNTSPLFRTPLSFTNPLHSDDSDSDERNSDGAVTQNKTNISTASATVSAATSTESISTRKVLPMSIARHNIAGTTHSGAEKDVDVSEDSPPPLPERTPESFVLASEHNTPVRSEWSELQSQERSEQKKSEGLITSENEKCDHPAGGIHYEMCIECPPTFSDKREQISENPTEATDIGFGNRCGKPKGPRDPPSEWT
Sequence of Sphingosine 1-phosphate receptor 1 (P21453 whole entry): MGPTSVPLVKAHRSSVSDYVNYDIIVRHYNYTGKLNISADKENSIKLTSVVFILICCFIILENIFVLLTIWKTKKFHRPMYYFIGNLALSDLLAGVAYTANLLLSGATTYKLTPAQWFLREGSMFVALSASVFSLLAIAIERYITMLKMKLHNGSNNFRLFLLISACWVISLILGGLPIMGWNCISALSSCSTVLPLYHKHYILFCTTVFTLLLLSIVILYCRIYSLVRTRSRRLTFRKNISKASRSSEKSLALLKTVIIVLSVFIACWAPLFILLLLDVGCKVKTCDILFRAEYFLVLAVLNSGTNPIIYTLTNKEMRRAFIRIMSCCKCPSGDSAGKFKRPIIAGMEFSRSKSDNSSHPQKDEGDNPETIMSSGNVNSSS
Sequence of Mu-type opioid receptor (P35372 whole entry): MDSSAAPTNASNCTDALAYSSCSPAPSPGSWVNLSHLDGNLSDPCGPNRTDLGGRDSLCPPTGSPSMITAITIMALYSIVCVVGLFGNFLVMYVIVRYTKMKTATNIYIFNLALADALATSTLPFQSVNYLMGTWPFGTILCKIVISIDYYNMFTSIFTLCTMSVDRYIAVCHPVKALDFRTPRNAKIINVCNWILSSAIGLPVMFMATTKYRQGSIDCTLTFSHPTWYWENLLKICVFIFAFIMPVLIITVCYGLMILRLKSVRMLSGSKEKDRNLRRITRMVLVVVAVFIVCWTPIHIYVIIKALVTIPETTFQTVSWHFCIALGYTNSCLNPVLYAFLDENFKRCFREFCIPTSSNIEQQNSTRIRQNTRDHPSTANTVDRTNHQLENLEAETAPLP

- IC50 [3]: > 32 µM (inactive)
- EC50 (Mu-type opioid receptor): > 32 µM (inactive)
- EC50 [4]: > 32 µM (inactive)
- EC50 [5]: 4.15 µM
- EC50 [6]: 5.69 µM
- EC50 [7]: 1.68 µM (active)
Structure (SMILES): Cc1cccc(-n2ccnc2CN2CCC(CO)(Cc3ccccc3)CC2)c1

- IC50 [16]: 9.68 µM (active)
- IC50 [17]: 3.86 µM (active)
Structure (SMILES): Cc1ccc(N2CCN(CCCNC(=O)Cn3c(=O)c4cccn4c4cc(Br)cnc43)CC2)cc1

The next lines start with the molecule.

Structure (SMILES): CN[C@@H](C)C(=O)NC1CCCN([C@@H](C)C(=O)Nc2ccc3ccccc3c2)C1=O (some centres not stated)
- IC50 [1]: > 100 µM (inactive)
- IC50 [2]: > 100 µM (inactive)

Structure (SMILES): N#C/C(=C/c1ccc(OCc2cccc(C(=O)O)c2)c(Cl)c1)c1cccc(F)c1
- IC50 [8]: > 100 µM (inactive)
- IC50 [9]: 17 µM (active)
- IC50 [10]: > 100 µM (inactive)
- IC50 [11]: 4.78 µM (active)
- IC50 [12]: > 100 µM (inactive)
- IC50 [13]: > 100 µM (inactive)
- IC50 [14]: > 100 µM (inactive)
- IC50 [15]: 99.1 µM (active)

Structure (SMILES): FCc1ccc(OCCOc2ccc(Cl)cc2Cl)c(Cl)n1
- EC50 [18]: > 50 µM (inactive)
- EC50 [19]: > 50 µM (inactive)
- EC50 [20]: > 50 µM (inactive)
- EC50 [21]: > 50 µM (inactive)
